Measured values published in US10206394B2, “Herbicidal compounds” (Syngenta Participations AG, priority 2014, dated 2019).
Read-outs that look alike come from different tables or passages of the source.

How the values were obtained:
Assay type in all cases: in vivo
[1] = test system: Winter Wheat variety 'Hereward'; experiment: Glasshouse assay for crop safety, post-emergence, +/- safener cloquintocet-mexyl (CQC), percentage phytotoxicity; details: 250 g/ha, evaluated after 13 days, 100=total damage, 0=no damage; for Post-emergence Crop Selectivity, percentage phytotoxicity, Wheat +CQC: with safener cloquintocet-mexyl (CQC) seed treatment 0.5 g/kg seed; for Post-emergence Crop Selectivity, percentage phytotoxicity, Wheat − CQC: without safener cloquintocet-mexyl (CQC)
Source text: Test—Glasshouse Assay for Crop Safety.
Seeds of the Winter Wheat variety ‘Hereward’ were seed treated with a wettable powder formulation of the cereal herbicide safener, cloquintocet mexyl, at a rate of 0.5 grams per kilogram of dry seed prior to the initiation of glasshouse testing. Three seeds were sown per 1.5 inch plastic pot into a sandy loam soil at a depth of 1 cm, 8 days prior to application of the test compounds and was watered and grown under controlled conditions in a glasshouse (at 24/16° C., day/night; 14 hours light; 65% humidity). The plants were sprayed Post-emergence with an aqueous spray solution derived from the formulation of the technical active ingredient in acetone/water (50:50) solution containing 0.5% Tween 20 (polyoxyethelyene sorbitan monolaurate, CAS RN 9005-64-5).
The test plants were then grown in a glasshouse under controlled conditions (at 24/16° C., day/night; 14 hours light; 65% humidity) and watered twice daily. After 13 days for pre and post-emergence, the test was evaluated (100=total damage to plant; 0=no damage to plant).

[2] = test system: Echinochloa crus-galli (ECHCG); experiment: Glasshouse assay for herbicidal activity (pre- and post-emergence), percentage phytotoxicity; details: Echinochloa crus-galli, Rate 250 g/ha, 100%=total damage, 0%=no damage
Outline: (§1)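 Seeds were sown in standard soil in pots and grown one day (pre-emergence) or about 12 days (post-emergence) before herbicide application. Plants were kept at 24/18 °C (warm-climate) or 20/16 °C (cool-climate) day/night, 16 h light, 65% humidity, watered twice daily, and damage was scored visually at 15 DAA (POST) or 20 DAA (PRE).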

[3] = test system: Alopecurus myosuroides (ALOMY); experiment: as above; details: Alopecurus myosuroides, Rate 250 g/ha, 100%=total damage, 0%=no damage
Outline: as §1

Avena fatua (AVEFA) = experiment: as above; details: Avena fatua, Rate 250 g/ha, 100%=total damage, 0%=no damage
Outline: as §1

Lolium perenne (LOLPE) = experiment: as above; details: Lolium perenne, Rate 250 g/ha, 100%=total damage, 0%=no damage
Outline: as §1

[4] = post-emergence, 360 h, post-emergence, assessed visually 15 DAA, read-out: Post-emergence herbicidal activity (percentage phytotoxicity) ECHCG POST
[5] = pre-emergence, 480 h, pre-emergence, assessed visually 20 DAA, read-out: Pre-emergence herbicidal activity (percentage phytotoxicity) ECHCG PRE
[6] = pre-emergence, 480 h, pre-emergence, assessed visually 20 DAA, read-out: Pre-emergence herbicidal activity (percentage phytotoxicity) ALOMY PRE
[7] = pre-emergence, 480 h, pre-emergence, assessed visually 20 DAA, read-out: Pre-emergence herbicidal activity (percentage phytotoxicity) AVEFA PRE
[8] = post-emergence, 360 h, post-emergence, assessed visually 15 DAA, read-out: Post-emergence herbicidal activity (percentage phytotoxicity) LOLPE POST
[9] = pre-emergence, 480 h, pre-emergence, assessed visually 20 DAA, read-out: Pre-emergence herbicidal activity (percentage phytotoxicity) LOLPE PRE
[10] = post-emergence, 360 h, post-emergence, assessed visually 15 DAA, read-out: Post-emergence herbicidal activity (percentage phytotoxicity) ALOMY POST
[11] = post-emergence, 360 h, post-emergence, assessed visually 15 DAA, read-out: Post-emergence herbicidal activity (percentage phytotoxicity) AVEFA POST

SMILES | Post-emergence Crop Selectivity, percentage phytotoxicity, Wheat +CQC [1] [%] | Post-emergence Crop Selectivity, percentage phytotoxicity, Wheat − CQC [1] [%] | pest or weed control at 250 g/ha [2, 4] [%] | pest or weed control at 250 g/ha [2, 5] [%] | pest or weed control at 250 g/ha [3, 6] [%] | pest or weed control at 250 g/ha (Avena fatua (AVEFA); [7]) [%] | pest or weed control at 250 g/ha (Lolium perenne (LOLPE); [8]) [%] | pest or weed control at 250 g/ha (Lolium perenne (LOLPE); [9]) [%] | pest or weed control at 250 g/ha [3, 10] [%] | pest or weed control at 250 g/ha (Avena fatua (AVEFA); [11]) [%]
Cc1cc(-c2cncnc2)cc(C)c1C1C(=O)CC(CC(=O)NCc2cccc(Cl)c2)C1=O (stereo not shown) [Compound A142] | 50 | 70 | 60 | 30 | 0 | 0 | 20 | 20 |  | 
Cc1cc(-c2ncc(F)cn2)cc(C)c1C1C(=O)CC(CC(=O)NCc2cccc(C(F)(F)F)c2)C1=O (stereo not shown) [Compound A145] | 30 | 60 | 100 | 100 | 100 | 100 | 90 | 100 | 100 | 100
Cc1cc(-c2ccc(Cl)cn2)cc(C)c1C1C(=O)CC(CC(=O)NCc2cccc(C(F)(F)F)c2)C1=O (stereo not shown) [Compound A146] | 50 | 80 | 100 | 90 | 80 | 90 | 100 | 90 | 100 | 100
